Source: patent US20050143463A1, “Method of inhibiting angiogenesis” (THE QUEEN ELIZABETH HOSPITAL RESEARCH FOUNDATION INC., priority 2002, published 2005)

Key:
[1] = tested on: Human umbilical vein endothelial cells (HUVEC); assay: HUVEC proliferation assay (tritiated thymidine uptake); format: cell-based; details: for HUVEC proliferation (in words) / inhibition at 400 µM: 400 μM concentration; for HUVEC proliferation (in words): tritiated thymidine uptake; for inhibition at 400 µM: percentage of control cells with no added agent (Table 3), read-out: Percentage inhibition of HUVEC proliferation; for inhibition of HUVEC proliferation in vitro, dose dependent (in words): dose dependent manner
Method: Human umbilical vein endothelial cells (HUVEC) were seeded in 96-well flat bottomed tissue culture plates at a density of 2.5-5×10^4 cells/well and treated with various dilutions of agents. Cells were cultured in RPMI medium containing 20% FCS, Penicillin/Streptomycin in a 5% CO2 atmosphere at 37° C. After 24 to 48 hours of incubation, cells were pulsed with 1 μCi of tritiated thymidine for 6 hours. The pulsed cells were trypsinised to detach from the wells and then harvested in a TOMTEC Cell Harvester onto glass fibre filters, which were dried and immersed in scintillation fluid and counted in a Wallac Microbeta scintillation counter. The results were reported as mean cpm±SD.

[2] = tested on: chicken chorioallantoic membrane (CAM); assay: Chicken chorioallantoic membrane (CAM) assay for angiogenesis; format: in vivo; details: for Vein length (%) / Artery length (%) / Total vessel length (%) / Vein Diameter (%) / CAM Increase (%): % of control, Mean ± SEM; for cytotoxicity to the embryo: chicken embryo, CAM assay; for inhibition of angiogenesis in the CAM assay, dose dependent (in words): dose dependent manner; for effect of the lowest dose on vein length, artery length, total vessel length and vein diameter (in words): lowest dose (25 nmol)
Method: Fertilised chicken eggs (HiChick Breeding Co, Kapunda, South Australia) were incubated for three days at 38° C. On Day 3 the embryos were cracked out of the egg and into a cup made of plastic piping, with plastic film stretched over the top to form a hammock for the egg to be suspended in. Two ml of DMEM containing penicillin and streptomycin was added to each cup prior to the egg being added. A petri dish on the top maintained sterility. Incubation continued in a humidified 37° C. incubator.
On Day 4 the chorioallantoic membrane (CAM) begins to grow, and pictures were taken of each embryo at ×5 to measure the CAM area using image analysis software (Video Pro 32, Leading Edge Pty Ltd, South Australia).
Embryos were then grouped according to their CAM area, with a control embryo in each for comparison. Grouping is critical as in these early developmental stages changes in the CAM growth are dramatic. Relatively small differences in size on Day 4 translate to large differences in the CAM on Day 5. Treatment was applied in methylcellulose discs, which were dried under vacuum overnight. The methylcellulose discs were applied to the top of the CAM, and at the beginning of treatment were at least three to four-fold bigger than the CAM area, meaning treatment covered the entire CAM surface.
On Day 5 skim milk with contrast medium was injected into the CAM. Pictures were then taken at various levels of magnification up to ×63. Quantitative measurements were made from ×5 pictures. CAM area, and vein and artery lengths were measured using image analysis (Video Pro 32, Leading Edge Pty Ltd, South Australia). Relative vessel lengths were then calculated as the total length/CAM area. Statistical analysis was made using SigmaStat and OneWay ANOVA with p<0.05 as the level of significance.

[3] = 25 nmol on methylcellulose disc
[4] = 50 nmol on methylcellulose disc
[5] = 100 nmol on methylcellulose disc

CC(C)CCCCCCCCCCC(=O)O [12-methyl tridecanoic acid]
HUVEC proliferation (in words) [1]: inhibited | inhibition at 400 µM ([1]; Homo sapiens, HUVEC): 35% | inhibition of HUVEC proliferation in vitro, dose dependent (in words) [1]: inhibit the proliferation

CC(C)CCCCCCCCCCCCCCC(=O)O [16-methyl heptadecanoic acid]
HUVEC proliferation (in words) [1]: inhibited | inhibition at 400 µM ([1]; Homo sapiens, HUVEC): 19% | inhibition of HUVEC proliferation in vitro, dose dependent (in words) [1]: inhibit the proliferation

CCC(C)CCCCCCCCCCCC(=O)O (stereo not shown) [13-methyl pentadecanoic acid]
HUVEC proliferation (in words) [1]: inhibited | inhibition at 400 µM ([1]; Homo sapiens, HUVEC): 21% | inhibition of HUVEC proliferation in vitro, dose dependent (in words) [1]: inhibit the proliferation

CCC(C)CCCCCCCCCCCCCC(=O)O (stereo not shown) [15-methyl heptadecanoic acid]
HUVEC proliferation (in words) [1]: inhibited | inhibition at 400 µM ([1]; Homo sapiens, HUVEC): 49% | inhibition of HUVEC proliferation in vitro, dose dependent (in words) [1]: inhibit the proliferation

CC(C)CCCCCCCCCC(=O)O [11-methyl dodecanoic acid]
HUVEC proliferation (in words) [1]: inhibited | inhibition at 400 µM ([1]; Homo sapiens, HUVEC): 83% | inhibition of HUVEC proliferation in vitro, dose dependent (in words) [1]: inhibit the proliferation

CC(C)CCCCCCCCCCCCC(=O)O [14-MPDA, 14-methylpentadecanoic Acid]
Vein length (%) [2, 3]: 89.6 ± 10.1% | Artery length (%) ([2]; 25 nmol): 81.3 ± 11.4% | Total vessel length (%) ([2]; 25 nmol): 84.7 ± 8.7% | Vein Diameter (%) ([2]; 25 nmol): 90.8 ± 9.2% | Vein length (%) [2, 4]: 80.9 ± 14.3% | Artery length (%) ([2]; 50 nmol): 81.4 ± 11.7% | Total vessel length (%) ([2]; 50 nmol): 80.9 ± 12.3% | Vein Diameter (%) ([2]; 50 nmol): 81.8 ± 14.1% | number of branching capillaries sprouting from the main vessels ([2]; 100 nmol): reduction | vessel area ([2]; 100 nmol): diminished | Vein length (%) [2, 5]: 63.3 ± 5.1^1% | Artery length (%) ([2]; 100 nmol): 83.5 ± 9.3% | Total vessel length (%) ([2]; 100 nmol): 74.0 ± 6.6% | Vein Diameter (%) ([2]; 100 nmol): 76.3 ± 10.2% | cytotoxicity to the embryo [2]: not cytotoxic | inhibition of angiogenesis in the CAM assay, dose dependent (in words) [2]: inhibit angiogenesis | effect of the lowest dose on vein length, artery length, total vessel length and vein diameter (in words) [2]: inhibited | HUVEC proliferation (in words) [1]: inhibited | inhibition at 400 µM ([1]; Homo sapiens, HUVEC): 7% | inhibition of HUVEC proliferation in vitro, dose dependent (in words) [1]: inhibit the proliferation

CCC(C)CCCCCCCCCC(=O)O (stereo not shown) [11-methyl tridecanoic acid]
HUVEC proliferation (in words) [1]: inhibited | inhibition at 400 µM ([1]; Homo sapiens, HUVEC): 42% | inhibition of HUVEC proliferation in vitro, dose dependent (in words) [1]: inhibit the proliferation

CCC(C)CCCCCCCCCCCCC(=O)O (stereo not shown) [14-methyl hexadecanoic acid]
HUVEC proliferation (in words) [1]: inhibited | inhibition at 400 µM ([1]; Homo sapiens, HUVEC): 41% | inhibition of HUVEC proliferation in vitro, dose dependent (in words) [1]: inhibit the proliferation

CC(C)CCCCCCCCCCCCCCCC(=O)O [17-MODA, 17-methyloctadecanoic Acid]
Vein length (%) [2, 3]: 81.3 ± 16.8% | Artery length (%) ([2]; 25 nmol): 82.6 ± 18.0% | Total vessel length (%) ([2]; 25 nmol): 81.9 ± 16.9% | Vein Diameter (%) ([2]; 25 nmol): 71.6 ± 13.4% | Vein length (%) [2, 4]: 112.8 ± 9.4% | Artery length (%) ([2]; 50 nmol): 97.0 ± 11.7% | Total vessel length (%) ([2]; 50 nmol): 104.2 ± 10.4% | Vein Diameter (%) ([2]; 50 nmol): 81.3 ± 8.4% | number of branching capillaries sprouting from the main vessels ([2]; 100 nmol): reduction | vessel area ([2]; 100 nmol): diminished | Vein length (%) [2, 5]: 94.3 ± 18.9% | Artery length (%) ([2]; 100 nmol): 97.2 ± 17.4% | Total vessel length (%) ([2]; 100 nmol): 95.9 ± 18.1% | Vein Diameter (%) ([2]; 100 nmol): 70.0 ± 15.0% | cytotoxicity to the embryo [2]: not cytotoxic | inhibition of angiogenesis in the CAM assay, dose dependent (in words) [2]: inhibit angiogenesis | effect of the lowest dose on vein length, artery length, total vessel length and vein diameter (in words) [2]: inhibited

CCCCCCCCC(C)CCCCCCCCC(=O)O (stereo not shown) [10-MODA, 10-methyloctadecanoic Acid]
Vein length (%) [2, 3]: 88.4 ± 8.8% | Artery length (%) ([2]; 25 nmol): 85.7 ± 6.2% | CAM Increase (%) ([2]; 25 nmol): 101.9 ± 11.2% | Total vessel length (%) ([2]; 25 nmol): 85.7 ± 5.4% | Vein Diameter (%) ([2]; 25 nmol): 82.9 ± 3.0% | Vein length (%) [2, 4]: 85.8 ± 14.1% | Artery length (%) ([2]; 50 nmol): 94.3 ± 6.3% | CAM Increase (%) ([2]; 50 nmol): 120.2 ± 25.5% | Total vessel length (%) ([2]; 50 nmol): 88.9 ± 7.0% | Vein Diameter (%) ([2]; 50 nmol): 90.2 ± 9.8% | number of branching capillaries sprouting from the main vessels ([2]; 100 nmol): reduction | vessel area ([2]; 100 nmol): diminished | Vein length (%) [2, 5]: 70.9 ± 22.5% | CAM Increase (%) ([2]; 100 nmol): 68.2 ± 8.6% | Vein Diameter (%) ([2]; 100 nmol): 76.1 ± 16.2% | cytotoxicity to the embryo [2]: not cytotoxic | inhibition of angiogenesis in the CAM assay, dose dependent (in words) [2]: inhibit angiogenesis | effect of the lowest dose on vein length, artery length, total vessel length and vein diameter (in words) [2]: inhibited

CO[C@H]1C[C@@H]2CC[C@@H](C)[C@@](O)(O2)C(=O)C(=O)N2CCCC[C@H]2C(=O)O[C@H]([C@H](C)C[C@@H]2CC[C@@H](O)[C@H](OC)C2)CC(=O)[C@H](C)/C=C(\C)[C@@H](O)[C@@H](OC)C(=O)[C@H](C)C[C@H](C)/C=C/C=C/C=C/1C [rapamycin, reference compound]
% Inhibition of HUVEC proliferation ([1]; 0.1 nM rapamycin, 24 hours (Table 2)): 72.8% | inhibition at 0.0001 µM ([1]; Homo sapiens, HUVEC, 24 h, 0.1 nM rapamycin, 24 hours (Table 2)): 73% | inhibition at 0.001 µM ([1]; Homo sapiens, HUVEC, 24 h, 1 nM rapamycin, 24 hours (Table 2)): ~80%

CC(C)CCCCCCCCC(=O)O [10-methyl undecanoic acid]
HUVEC proliferation (in words) [1]: inhibited | inhibition at 400 µM ([1]; Homo sapiens, HUVEC): 84% | inhibition of HUVEC proliferation in vitro, dose dependent (in words) [1]: inhibit the proliferation

CC(C)CCCCCCCCCCCC(=O)O [13-MTA, 13-methyltetradecanoic Acid]
number of branching capillaries sprouting from the main vessels ([2]; 100 nmol): reduction | vessel area ([2]; 100 nmol): diminished | cytotoxicity to the embryo [2]: not cytotoxic | inhibition of angiogenesis in the CAM assay, dose dependent (in words) [2]: inhibit angiogenesis | effect of the lowest dose on vein length, artery length, total vessel length and vein diameter (in words) [2]: inhibited | HUVEC proliferation (in words) [1]: inhibited | inhibition at 400 µM ([1]; Homo sapiens, HUVEC): 19% | inhibition of HUVEC proliferation in vitro, dose dependent (in words) [1]: inhibit the proliferation

CC(C)CCCCCCCCCCCCCC(=O)O [15-methyl hexadecanoic acid]
HUVEC proliferation (in words) [1]: inhibited | inhibition at 400 µM ([1]; Homo sapiens, HUVEC): 63% | inhibition of HUVEC proliferation in vitro, dose dependent (in words) [1]: inhibit the proliferation

16-methyltetradecanoic acid
inhibition of angiogenesis in the CAM assay, dose dependent (in words) [2]: inhibit angiogenesis
